Tests used:
[1] = test system: uterine gene expression; experiment: Ranking of drug activity according to uterine GEP (GEP scoring axis, PCA; estrogenic potency score); assay type: in vivo, cynomolgus monkeys (Macaca fascicularis)
Source text: To define a reference axis representing the desired pharmacological/toxicological action, we used a priori knowledge of 2 groups representing or approximating the extremes of the condition under study. These consisted of the OVX group (OVX untreated animals representing the one extreme) and OVX+estradiol (OVX animals treated with estradiol, an agent know to exercise a well-defined action, representing the other extreme). These two groups were used to quantitatively scale the axis. Other compounds were then positioned on this axis whereby the drugs could be ranked with regard to specific aspects of a pharmacological/toxicological action.
Generally, the data derived from an individual microarray, proteomic, or metabolite profiling experiment can be considered as a fingerprint. […] Thus, selection and elimination of the appropriate features is an important aspect of this methodology and the quantitative nature of this approach depends on the features used to define the axis of drug action.
In the case of a well-defined condition, it is possible to invoke a priori knowledge on the selection of features. If the molecular biology of the specific drug action is known, the features (e.g. genes, metabolites) to be used for the definition of the axis can be defined a priori. In the case of a less-well-defined condition, it is possible to use univariate filters (in this case, gene intensity >50, ≧1.5-fold change in expression vs. controls [OVX], and statistical significance and statistical methods to identify and exclude non-informative features.
Issues of transformation, centering (variable-wise), and scaling of the data were considered. In the case of microarrays, the data were log10-transformed and probe set-wise centered. Generally, no scaling was applied. When using only a small number of biologically identified features, these were scaled to unit variance.
To calculate the axis of drug action, a principal component axis (PCA) was performed using only the 2 treatment groups that were at the extremes (the untreated OVX animals vs. the estrodiol-treated OVX animals). Massart D L et al., Handbook for Chemometrics and Qualimetrics, Part a. (Elsevier; 1997); Jolliffe I T. Principal Component Analysis. 2nd Edition (Springer; New York, N.Y., 2002). Only 1 principal component (PC) was calculated, which was a weighted linear combination of all features in the input data pointing in the direction of maximum variance. The weights of the probe sets in this linear combination were called “loadings” and their absolute value is a measure of their importance in explaining the difference between the 2 groups. Every measurement in the experiment (e.g. microarray) could then be represented by its coordinate (score) on the PC. Alternatively, to obtain an even better separation between the groups, the PLS-DA (Partial-Least-Squares Discriminate Analysis) method with a 0/1 dummy variable as response vector was used. […] Massart D L et al., Handbook of Chemometrics and Qualimetrics, Part b. (Elsevier; 1997). The next step was identification of the features that were important for the definition of the axis. This was based on the magnitude of their loadings and their statistical significance using error estimates based on cross-validation and/or normal probability plots of the loadings. Hunter W G & Hunter J S. Statistics for Experimenters: an Introduction to Design, Data Analysis, and Model Building. 1st Edition (Wiley; 1978). This enabled calculation of a new PCA model using only the important features.
If a pharmacological or toxicological action affected multiple biochemical pathways that were represented by grossly different numbers of features in the measurement, block scaling was used. Eriksson L et al., Multi-and Megavariate Data Analysis-Principles and Applications. (Umetrics Academy; 2001). This attributed the same influence to all pathways (groups of features) in the calculation of the PCA model. […]

[2] = test system: transcript abundance in organs; experiment: Salmon calcitonin/PTS893 monkey study: multiorgan gene expression profiling (HG-U95Av2 arrays); assay type: in vivo, cynomolgus monkeys (Macaca fascicularis); parameters: key: B = bone; K = kidney; M = muscle; P = pituitary; L = liver; T = trachea
Method: A set of tissues was selected for gene expression profiling. These set included samples from kidney, bone, muscle, duodenum, pituitary and liver.
HG-U95Av2 GeneChip® expression probe arrays (Affymetrix, Santa Clara Calif. USA) were used. […] Workstation 400 (Affymetrix).
Data analysis was performed with the Silicon Genetics software package GeneSpring version 4.2.1 and 5. Average difference values below 20 were set to 20.
The threshold range for considering as up or down regulation was determined within the context of the biological interpretation of the study.
Increase and decrease reported here refer to transcript abundance, unless specifically stated.

[3] = 123 genes thought to have a role in uterine function
[4] = 225 genes, statistically significant >1.5-fold changes
[5] = 673 genes, >1.5-fold change disregarding statistical significance
[6] = Effects on Osteoblasts, autocrine/paracrine regulation of osteoblast function
[7] = Effects on Osteoblasts, endocrine regulation of osteoblast function
[8] = Effects on Osteoclasts: bone resorption by osteoclast
[9] = Effects on Osteoclasts: osteoclast determination, survival and differentiation
[10] = Extracellular matrix, collagen synthesis

O=C(c1ccc(OCCN2CCCCC2)cc1)c1c(-c2ccc(O)cc2)sc2cc(O)ccc12 [raloxifene]
Estrogenic score (GEP score; OVX 0, estradiol 100) [1, 3]: 20
Estrogenic score (GEP score; OVX 0, estradiol 100) [1, 4]: 23
Estrogenic score (GEP score; OVX 0, estradiol 100) [1, 5]: 34
Estrogenic scores in specific gene groups (categories) ([1]; subanalysis per gene class): −11 to 32

CC/C(=C(\c1ccccc1)c1ccc(OCCN(C)C)cc1)c1ccccc1 [tamoxifen]
Estrogenic score (GEP score; OVX 0, estradiol 100) [1, 3]: 69
Estrogenic score (GEP score; OVX 0, estradiol 100) [1, 4]: 59
Estrogenic score (GEP score; OVX 0, estradiol 100) [1, 5]: 71

Leu8, Asp10, Lysll, A1a16, G1n18, Thr33, A1a34 human PTH 1-34 [PTS893, Leu8, Asp10, Lysll, A1a16, G1n18, Thr33, A1a34 human PTH 1-34 [hPTH(1-34)]]
Organs where changes in expression were seen: Cyclin-dependent kinases 5, 6, 10 ([2]; Cell cycle): B
Organs where changes in expression were seen: Cyclin-dependent kinases inhibitor 1A, 1C, 2D) ([2]; Cell cycle): B
Organs where changes in expression were seen: Cyclins (A, A2, B1, C, D2, E2, G1, G2) ([2]; Cell cycle): B
Organs where changes in expression were seen: Bone Morphogenetic Proteins [2, 6]: B
Organs where changes in expression were seen: Fibroblast Growth Factors [2, 6]: B
Organs where changes in expression were seen: Insulin-like Growth Factors [2, 6]: B
Organs where changes in expression were seen: TGFs [2, 6]: B
Organs where changes in expression were seen: Tob [2, 6]: B
Organs where changes in expression were seen: Activin [2, 7]: B
Organs where changes in expression were seen: Retinoic receptor X [2, 7]: B
Organs where changes in expression were seen: Y-box binding protein ([2]; Effects on Osteoblasts, transcription factor that regulates collagen type 1 synthesis): B
Organs where changes in expression were seen: H+ ATP-ases [2, 8]: B
Organs where changes in expression were seen: ODF/OPGL: osteoprotegerin ligand [2, 8]: B
Organs where changes in expression were seen: Granulocyte to macrophage colony-stimulating factor (CSF1) [2, 9]: B
Organs where changes in expression were seen: Monocyte to macrophage differentiation associate (MMD) [2, 9]: B
Organs where changes in expression were seen: PU.1 (SPI1) [2, 9]: B
Organs where changes in expression were seen: Aggrecan ([2]; Extracellular matrix component): B
Organs where changes in expression were seen: Chondroitin sulphate proteoglycan ([2]; Extracellular matrix component): B
Organs where changes in expression were seen: Dermatopontin ([2]; Extracellular matrix component): B
Organs where changes in expression were seen: Heparan sulphate proteoglycan ([2]; Extracellular matrix component): B
Organs where changes in expression were seen: Syndecan ([2]; Extracellular matrix component): B
Organs where changes in expression were seen: Integrins ([2]; Extracellular matrix, cell attachment, signal transduction): B
Organs where changes in expression were seen: Lysyl hydroxylase [2, 10]: B
Organs where changes in expression were seen: Procollagen endopeptidase/proteinase [2, 10]: B
Organs where changes in expression were seen: Adenylate cyclase ([2]; Signal transduction): B
Organs where changes in expression were seen: CREM ([2]; Signal transduction): B
Organs where changes in expression were seen: Calcyclin binding protein ([2]; Signal transduction): B
Organs where changes in expression were seen: MAPK ([2]; Signal transduction): B
Organs where changes in expression were seen: Phosphatidylinositol pathway ([2]; Signal transduction): B
Organs where changes in expression were seen: Phosphodiesterase (IB, 4A, 4B) ([2]; Signal transduction): B
Organs where changes in expression were seen: Phospholipase (C, D) ([2]; Signal transduction): B
Organs where changes in expression were seen: SMAD pathway ([2]; Signal transduction): B
Organs where changes in expression were seen: STAT pathway ([2]; Signal transduction): B
Organs where changes in expression were seen: Amelogenin (cement component) ([2]; cynomolgus monkey, in vivo): B
Organs where changes in expression were seen: Dentin (mineral matrix protein) ([2]; cynomolgus monkey, in vivo): B
Organs where changes in expression were seen: VEGF ([2]; cynomolgus monkey, in vivo): B
